# Measured values from patent US20260217701A1, “SELECTIVE BET INHIBITORS AND USES THEREOF” (Tay Therapeutics Limited, priority 2022, published 2026).
# “And” between values parts separate entries of the source, which are not always exact repeats. Identical values can stand only once. Like-named read-outs stand apart in the source and are kept apart here.
# Experiments:
# [1] = Dog PK study #1 (Compound A IV and PO, propylene glycol formulation); type: in vivo, beagle dogs; conditions: for Vd: read-out: Vss—obs
# Source text: The purpose of this study was to examine the pharmacokinetics of Compound A in beagle dogs. Four beagle dog studies were undertaken, one where Compound A was formulated in a propylene glycol based formulation (Dog PK study #1-PO and IV), a second where Compound A was formulated in a HPBCD based formulation (Dog PK study #2-IV), a third where Compound A was formulated in a 5% DMSO/15% PEG-400/80% (10% VE-TPGS) formulation (Dog PK study #3-PO), and a fourth where Compound A was formulated in […]/15% PEG-400/80% (10% VE-TPGS) formulation (Dog PK study #4-PO).
# For Dog PK study #1, two solutions of different concentrations of Compound A were prepared in 20% propylene glycol/20% Vitamin E TPGS/60% water as outlined in Table 2A in Experimental Method A. The solutions of Compound A in 20% propylene glycol/20% Vitamin E TPGS/60% water were prepared freshly prior to use. The Compound A solutions administered were then administered to animals either intravenously (IV) or orally (PO) and animals were then monitored over a 24 h period (Table 3B). Body weight was recorded prior to dosing, and detailed clinical observations were made prior to dosing and throughout the study, as needed.
# Blood samples (~0.3 mL) were collected according to a schedule (shown below) by venipuncture of peripheral veins except for the dosing vein, and EDTA-K2 was used as anticoagulant. Within 30 minutes of collection, the samples were centrifuged at approximately 2000 times g-force for 10 minutes at 4° C. to obtain blood plasma. The plasma samples were immediately divided into two aliquots (~75 μL each), transferred to a cryogenic vial, and stored in a freezer at −75±15° C. prior to analysis.
# Blood samples for IV were collected at 0.083, 0.25, 0.5, 1, 2, 4, 8, 24 h and blood samples for PO were collected at 0.25, 0.5, 1, 2, 4, 8, and 24 h following the initial dosing (0 h).
# The concentration of Compound A in the blood plasma was determined through liquid chromatography-mass spectrometry (LC-MS). The experiments were conducted on a Shimadzu HPLC(DGU-20A5R; LC-30AD; SIL-30AC; Rack Changer II; CTO-30A; and CBM-20A) and AB API 5500+LC/MS/MS instrument with an Agilent Poroshell EC-C18 4 μm (50×2.1 mm) column. A gradient of 95% water (0.1% formic acid)/95% acetonitrile (0.1% formic acid) was used as the mobile phase. The sample injection volume was 10 μL, and the flow rate was 0.6 mL/min. The gathered data were used for pharmacokinetic calculations using T1/2, C0, AUClast, AUCinf, MRTinf, Cl, Vss, and Number of Points for Regression as parameters.
# The desired serial concentrations of working solutions were achieved by diluting stock solution of analyte with 50% acetonitrile in water solution. 5 μL of working solutions (5, 10, 20, 50, 100, 500, 1000, 5000, 10000 ng/mL) were added to 50 μL of the blank Beagle Dogs plasma to achieve calibration standards of 0.5~1000 ng/ml (0.5, 1, 2, 5, 10, 50, 100, 500, 1000 ng/ml) in a total volume of 55 μL. Five quality control samples at 1 ng/ml, 2 ng/ml, 5 ng/ml, 50 ng/mL and 800 ng/ml for plasma were prepared independently of those used for the calibration curves. These QC samples were prepared on the day of analysis in the same way as calibration standards.
# 55 μL standards, 55 μL QC samples and 55 μL unknown samples (50 μl plasma with 5 μL blank solution were added to 200 μL of acetonitrile containing IS mixture (verapamil) for precipitating protein respectively. Then the samples were vortexed for 30 s. After centrifugation at 4° C., 3900 rpm for 15 min, the supernatant was diluted 3 times with water. 10 μL of diluted supernatant was injected into the LC/MS/MS system for quantitative analysis.
# [2] = CIA study: clinical observations; type: in vivo, Lewis rats; conditions: CIA rats
# [3] = IV 1 mg/kg, individual animals, 1 mg/kg
# [4] = beagle, dog, plasma, iv, 1 mg/kg, IV 1 mg/kg, individual animals, read-out: Plasma concentration
# [5] = beagle, dog, plasma, iv, 1 mg/kg, IV 1 mg/kg, mean, read-out: Average plasma concentration
# [6] = beagle, dog, plasma, iv, 1 mg/kg, IV 1 mg/kg, mean
# [7] = beagle, dog, plasma, iv, 1 mg/kg, IV 1 mg/kg, individual animals
# [8] = beagle, dog, plasma, po, 5 mg/kg, oral 5 mg/kg, individual animals, read-out: Plasma concentration
# [9] = beagle, dog, plasma, po, 5 mg/kg, oral 5 mg/kg, mean, read-out: Average plasma concentration
# [10] = beagle, dog, plasma, po, 5 mg/kg, oral 5 mg/kg, mean
# [11] = beagle, dog, plasma, po, 5 mg/kg, oral 5 mg/kg, individual animals
# [12] = oral 5 mg/kg, individual animals, 5 mg/kg
smiles,measurement,setting,value
"Cn1cc(-c2ccccc2)c(-c2cn(C)c(=O)c3[nH]c(-c4cnn(C(F)(F)F)c4)cc23)cc1=O [Compound A, 6-methyl-4-(1-methyl-2-oxo-5-phenyl-1,2-dihydropyridin-4-yl)-2-(1-(trifluoromethyl)-1H-pyrazol-4-yl)-1,6-dihydro-7H-pyrrolo[2,3-c]pyridin-7-one]",AUClast,[1]; [3],4746 ng·h/mL and 2876 ng·h/mL and 7862 ng·h/mL
same,AUClast/D,[1]; [3],4746 (ng · h/mL)/(mg/kg) and 2876 (ng · h/mL)/(mg/kg) and 7862 (ng · h/mL)/(mg/kg)
same,AUClnf,[1]; [3],4892 ng·h/mL and 2944 ng·h/mL and 8955 ng·h/mL
same,AUC—%Extrap—obs,[1]; [3],2.98% and 2.32% and 12.2%
same,C0,[1]; [3],1618 ng/mL and 1767 ng/mL
same,CI_obs,[1]; [3],3.41 mL/min/kg and 5.66 mL/min/kg and 1.86 mL/min/kg
same,MRTlnf—obs,[1]; [3],5.21 h and 4.15 h and 10.0 h
same,T1/2,[1]; [3],5.23 h and 8.60 h
same,Vss—obs,[1]; [3],1.41 L/kg and 1.12 L/kg
same,AUClast/D,"[1]; IV 1 mg/kg, mean",5162 (ng · h/mL)/(mg/kg)
same,AUC—%Extrap—obs,"[1]; IV 1 mg/kg, mean",5.8%
same,CI_obs,"[1]; IV 1 mg/kg, mean",3.64 mL/min/kg
same,MRTlnf—obs,"[1]; IV 1 mg/kg, mean",6.5 h
same,time over which plasma concentration increased after oral administration,"[1]; PO, all animals",2 h
same,concentration at 0.083 h,[1]; [4],1480 ng/mL
same,concentration at 0.083 h,[1]; [5],1480 ng/mL
same,concentration at 0.25 h,[1]; [4],1130 ng/mL
same,concentration at 0.25 h,[1]; [5],1130 ng/mL
same,concentration at 0.5 h,[1]; [4],971 ng/mL
same,concentration at 0.5 h,[1]; [5],912 ng/mL
same,concentration at 1 h,[1]; [4],802 ng/mL
same,concentration at 1 h,[1]; [5],764 ng/mL
same,concentration at 2 h,[1]; [4],594 ng/mL
same,concentration at 2 h,[1]; [5],586 ng/mL
same,concentration at 4 h,[1]; [6],293 ng/mL
same,concentration at 8 h,[1]; [6],169 ng/mL
same,concentration at 24 h,[1]; [6],38.7 ng/mL
same,half-life,[1]; [7],316 min
same,C0,"[1]; beagle, dog, plasma, iv, 1 mg/kg, IV 1 mg/kg, individual animals, read-out: C0",1690 ng/mL
same,Vd,[1]; [7],1.06 L/kg
same,AUC,[1]; [6],5600 ng·h/mL
same,AUC(0-t),[1]; [6],5160 ng·h/mL
same,half-life,[1]; [6],382 min
same,C0,"[1]; beagle, dog, plasma, iv, 1 mg/kg, IV 1 mg/kg, mean, read-out: C0",1690 ng/mL
same,Vd,[1]; [6],1.2 L/kg
same,concentration at 0.25 h,[1]; [8],25.1 ng/mL
same,concentration at 0.25 h,[1]; [9],26.7 ng/mL
same,concentration at 0.5 h,[1]; [8],147 ng/mL
same,concentration at 0.5 h,[1]; [9],127 ng/mL
same,concentration at 1 h,[1]; [9],293 ng/mL
same,concentration at 2 h,[1]; [9],435 ng/mL
same,concentration at 4 h,[1]; [10],369 ng/mL
same,concentration at 8 h,[1]; [10],123 ng/mL
same,concentration at 24 h,[1]; [10],29.9 ng/mL
same,AUC,[1]; [11],4520 ng·h/mL
same,half-life,[1]; [11],272 min
same,AUC,[1]; [10],4270 ng·h/mL
same,AUC(0-t),[1]; [10],3500 ng·h/mL
same,half-life,[1]; [10],244 min
same,Cmax,"[1]; beagle, dog, plasma, po, 5 mg/kg, oral 5 mg/kg, mean, read-out: Cmax",435 ng/mL
same,Tmax,"[1]; beagle, dog, plasma, oral 5 mg/kg, individual animals",2 h
same,AUClast,[1]; [12],4398 ng·h/mL and 2122 ng·h/mL and 3976 ng·h/mL
same,AUClast/D,[1]; [12],880 (ng · h/mL)/(mg/kg) and 424 (ng · h/mL)/(mg/kg) and 795 (ng · h/mL)/(mg/kg)
same,AUClnf,[1]; [12],4019 ng·h/mL
same,AUC—%Extrap—obs,[1]; [12],2.78% and 1.09%
same,Cmax,[1]; [12],498 ng/mL and 228 ng/mL and 580 ng/mL
same,F,[1]; [12],16.2% and 8.22% and 14.4%
same,MRTlnf—obs,[1]; [12],6.47 h and 5.27 h
same,T1/2,[1]; [12],3.61 h
same,AUClast/D,"[1]; oral 5 mg/kg, mean",700 (ng · h/mL)/(mg/kg)
same,AUC—%Extrap—obs,"[1]; oral 5 mg/kg, mean",1.93%
same,F,"[1]; oral 5 mg/kg, mean",12.9%
same,MRTlnf—obs,"[1]; oral 5 mg/kg, mean",5.87 h
same,availability and tolerability,[1]; overall statement on the four dog PK studies,IV and orally available and well tolerated
same,Clinical observations,"[2]; 1 mg/kg, Day 16",Diarrhea
same,Clinical observations,"[2]; 3 mg/kg, Day 13",Diarrhea
same,Clinical observations,"[2]; 3 mg/kg, Day 14",Diarrhea
same,Clinical observations,"[2]; 3 mg/kg, Day 15",Diarrhea
same,Clinical observations,"[2]; 3 mg/kg, Day 16",Diarrhea
same,Clinical observations,"[2]; 3 mg/kg, Day 21",Diar-
same,Clinical observations,"[2]; 10 mg/kg, Day 12",Diarrhea
same,Clinical observations,"[2]; 10 mg/kg, Day 13",Diarrhea
same,Clinical observations,"[2]; 10 mg/kg, Day 14",Diarrhea
same,Clinical observations,"[2]; 10 mg/kg, Day 15",Diarrhea
same,Clinical observations,"[2]; 10 mg/kg, Day 16",Diarrhea
same,Clinical observations,"[2]; 10 mg/kg, Day 17",Diarrhea
same,Clinical observations,"[2]; 10 mg/kg, Day 18",Diarrhea
